Test results from patent publication US5593984A, “Cephalosporin derivatives” (Yuhan Corporation, priority 1992, dated 1997).
In brackets after ≈: the same amount, converted by molar mass.

Key:
Assay type in all cases: cell-based
[1] = test system: B. subtilis ATCC 6633; test: MIC by agar dilution, B. subtilis ATCC 6633; settings: Bacillus subtilis, ATCC6633, 17 h; B. subtilis ATCC 6633; agar dilution, Mueller-Hinton agar; read-out: Minimal Inhibitory Concentration (MIC)
Protocol: (§1) These MIC values were determined by agar dilution method: that is, two-fold dilutions of each of the test compounds were made and dispersed in a Mueller-Hinton agar medium; standard test strain which had the 10^6 CFU (Colony Forming Unit) per ml was inoculated on the medium with microplanter (Toyo, Japan), and incubated at 35°-37° C. for 17±1 hours. The structures of Ceftazidime (CAZ) and Cefotaxime (CTX) which are used as control compounds are as follows: [drawing 12]

[2] = test system: Staph. aureus ATCC 6538P; test: MIC by agar dilution, Staph. aureus ATCC 6538P; settings: Staphylococcus aureus, ATCC6538P, 17 h; Staph. aureus ATCC 6538P; agar dilution, Mueller-Hinton agar; read-out: Minimal Inhibitory Concentration (MIC)
Protocol: as §1

[3] = test system: Staph. aureus Smith; test: MIC by agar dilution, Staph. aureus Smith; settings: Staphylococcus aureus, 17 h, Mueller-Hinton agar, read-out: Minimal Inhibitory Concentration (MIC)
Protocol: as §1

[4] = test system: Staph. aureus C-57; test: MIC by agar dilution, Staph. aureus C-57; settings: Staphylococcus aureus, C57, 17 h, Mueller-Hinton agar, read-out: Minimal Inhibitory Concentration (MIC)
Protocol: as §1

[5] = test system: Staph. aureus C-5113; test: MIC by agar dilution, Staph. aureus C-5113; settings: Staphylococcus aureus, C5113, 17 h, Mueller-Hinton agar, read-out: Minimal Inhibitory Concentration (MIC)
Protocol: as §1

[6] = test system: Staph. aureus C-5216; test: MIC by agar dilution, Staph. aureus C-5216; settings: Staphylococcus aureus, C5216, 17 h, Mueller-Hinton agar, read-out: Minimal Inhibitory Concentration (MIC)
Protocol: as §1

[7] = test system: S. epidermidis ATCC 12228; test: MIC by agar dilution, S. epidermidis ATCC 12228; settings: Staphylococcus epidermidis, ATCC12228, 17 h; S. epidermidis ATCC 12228; agar dilution, Mueller-Hinton agar; read-out: Minimal Inhibitory Concentration (MIC)
Protocol: as §1

[8] = test system: Ent. aerogenes IFO 12979; test: MIC by agar dilution, Ent. aerogenes IFO 12979; settings: Klebsiella aerogenes, IFO12979, 17 h, Mueller-Hinton agar, read-out: Minimal Inhibitory Concentration (MIC)
Protocol: as §1

[9] = test system: Ent. cloacae IFO 13535; test: MIC by agar dilution, Ent. cloacae IFO 13535; settings: Enterobacter cloacae, IFO13535, 17 h; Ent. cloacae IFO 13535; agar dilution, Mueller-Hinton agar; read-out: Minimal Inhibitory Concentration (MIC)
Protocol: as §1

[10] = test system: E. coli NIHJ JC-2; test: MIC by agar dilution, E. coli NIHJ JC-2; settings: Escherichia coli, NIHJJC2, 17 h; E. coli NIHJ JC-2; agar dilution, Mueller-Hinton agar; read-out: Minimal Inhibitory Concentration (MIC)
Protocol: as §1

[11] = test system: E. coli No. 29; test: MIC by agar dilution, E. coli No. 29; settings: Escherichia coli, 17 h; E. coli No. 29; agar dilution, Mueller-Hinton agar; read-out: Minimal Inhibitory Concentration (MIC)
Protocol: as §1

[12] = test system: E. coli DY-1; test: MIC by agar dilution, E. coli DY-1; settings: Escherichia coli, DY1, 17 h; E. coli DY-1; agar dilution, Mueller-Hinton agar; read-out: Minimal Inhibitory Concentration (MIC)
Protocol: as §1

[13] = test system: K. pneumoniae NCTC 9632; test: MIC by agar dilution, K. pneumoniae NCTC 9632; settings: Klebsiella pneumoniae, NCTC9632, 17 h; K. pneumoniae NCTC 9632; agar dilution, Mueller-Hinton agar; read-out: Minimal Inhibitory Concentration (MIC)
Protocol: as §1

[14] = test system: M. morganii DY-1; test: MIC by agar dilution, M. morganii DY-1; settings: Morganella morganii, DY1, 17 h; M. morganii DY-1; agar dilution, Mueller-Hinton agar; read-out: Minimal Inhibitory Concentration (MIC)
Protocol: as §1

[15] = test system: Ps. aeruginosa ATCC 10145; test: MIC by agar dilution, Ps. aeruginosa ATCC 10145; settings: Pseudomonas aeruginosa, ATCC10145, 17 h, Mueller-Hinton agar, read-out: Minimal Inhibitory Concentration (MIC)
Protocol: as §1

[16] = test system: Ps. aeruginosa NCTC 10490; test: MIC by agar dilution, Ps. aeruginosa NCTC 10490; settings: Pseudomonas aeruginosa, NCTC10490, 17 h, Mueller-Hinton agar, read-out: Minimal Inhibitory Concentration (MIC)
Protocol: as §1

[17] = test system: Ps. aeruginosa DY-2; test: MIC by agar dilution, Ps. aeruginosa DY-2; settings: Pseudomonas aeruginosa, DY2, 17 h; Ps. aeruginosa DY-2; agar dilution, Mueller-Hinton agar; read-out: Minimal Inhibitory Concentration (MIC)
Protocol: as §1

[18] = test system: P. vulgaris NCTC 8313; test: MIC by agar dilution, P. vulgaris NCTC 8313; settings: Proteus vulgaris, NCTC8313, 17 h; P. vulgaris NCTC 8313; agar dilution, Mueller-Hinton agar; read-out: Minimal Inhibitory Concentration (MIC)
Protocol: as §1

[19] = test system: Prov. stuartii IFO 12930; test: MIC by agar dilution, Prov. stuartii IFO 12930; settings: Providencia stuartii, IFO12930, 17 h, Mueller-Hinton agar, read-out: Minimal Inhibitory Concentration (MIC)
Protocol: as §1

[20] = test system: Ser. marcescens IFO 12648; test: MIC by agar dilution, Ser. marcescens IFO 12648; settings: Serratia marcescens, IFO12648, 17 h; Ser. marcescens IFO 12648; agar dilution, Mueller-Hinton agar; read-out: Minimal Inhibitory Concentration (MIC)
Protocol: as §1

Row | SMILES | MIC [1] | MIC [2] | MIC [3] | MIC [4] | MIC [5] | MIC [6] | MIC [7] | MIC [8] | MIC [9] | MIC [10] | MIC [11] | MIC [12] | MIC [13] | MIC [14] | MIC [15] | MIC [16] | MIC [17] | MIC [18] | MIC [19] | MIC [20]
1 | CCO/N=C(\C(=O)N[C@@H]1C(=O)N2C(C(=O)[O-])=C(C[n+]3ccn4c(C(C)=O)cc(Cl)c4c3)CS[C@H]12)c1csc(N)n1 [Ex. 35, 7-β-[(Z)-2-(2-aminothiazol-4-yl)-2-ethoxyiminoacetamido]-3-(6-acetyl-8-chloropyrrolo[1,2-a]pyrazinium-2-yl)methyl-3-cephem-4-carboxylate] | 0.39 µg/mL (≈ 0.646 µM) | 1.56 µg/mL (≈ 2.58 µM) | 1.56 µg/mL (≈ 2.58 µM) | 25 µg/mL (≈ 41.4 µM) | 1.56 µg/mL (≈ 2.58 µM) | 1.56 µg/mL (≈ 2.58 µM) | 0.1 µg/mL (≈ 0.166 µM) | 0.05 µg/mL (≈ 0.0828 µM) | 0.39 µg/mL (≈ 0.646 µM) | 0.1 µg/mL (≈ 0.166 µM) | 0.05 µg/mL (≈ 0.0828 µM) | 0.025 µg/mL (≈ 0.0414 µM) | 0.1 µg/mL (≈ 0.166 µM) | 0.2 µg/mL (≈ 0.331 µM) | 6.25 µg/mL (≈ 10.3 µM) | 3.13 µg/mL (≈ 5.18 µM) | 25 µg/mL (≈ 41.4 µM) | 0.012 µg/mL (≈ 0.0199 µM) | 0.1 µg/mL (≈ 0.166 µM) | 0.2 µg/mL (≈ 0.331 µM)
2 | CON=C(C(=O)NC1C(=O)N2C(C(=O)[O-])=C(C[n+]3ccn4c([N+](=O)[O-])ccc4c3)CSC12)c1csc(N)n1 (stereo not drawn) [Ex. 14, 7-β-[(Z)-2-(2-aminothiazol-4-yl)-2-methoxyiminoacetamido]-3-(6-nitropyrrolo[1,2-a]pyrazinium-2-yl)methyl-3-cephem-4-carboxylate] | 0.39 µg/mL (≈ 0.698 µM) | 0.39 µg/mL (≈ 0.698 µM) | 1.56 µg/mL (≈ 2.79 µM) | 25 µg/mL (≈ 44.8 µM) | 3.13 µg/mL (≈ 5.6 µM) | 1.56 µg/mL (≈ 2.79 µM) | 0.05 µg/mL (≈ 0.0895 µM) | 0.05 µg/mL (≈ 0.0895 µM) | 0.78 µg/mL (≈ 1.4 µM) | 0.1 µg/mL (≈ 0.179 µM) | 0.05 µg/mL (≈ 0.0895 µM) | 0.05 µg/mL (≈ 0.0895 µM) | 0.05 µg/mL (≈ 0.0895 µM) | 0.05 µg/mL (≈ 0.0895 µM) | 6.25 µg/mL (≈ 11.2 µM) | 1.56 µg/mL (≈ 2.79 µM) | 25 µg/mL (≈ 44.8 µM) | 0.012 µg/mL (≈ 0.0215 µM) | ≤ 0.006 µg/mL | 0.1 µg/mL (≈ 0.179 µM)
3 | CCON=C(C(=O)NC1C(=O)N2C(C(=O)[O-])=C(C[n+]3ccn4c(C(C)=O)ccc4c3)CSC12)c1csc(N)n1 (stereo not drawn) [Ex. 19, 7-β-[(Z)-2-(2-aminothiazol-4-yl)-2-ethoxyiminoacetamido]-3-(6-acetylpyrrolo[1,2-a]pyrazinium-2-yl)methyl-3-cephem-4-carboxylate] | 0.1 µg/mL (≈ 0.176 µM) | 0.2 µg/mL (≈ 0.351 µM) | 0.78 µg/mL (≈ 1.37 µM) | 50 µg/mL (≈ 87.8 µM) | 1.56 µg/mL (≈ 2.74 µM) | 1.56 µg/mL (≈ 2.74 µM) | 0.05 µg/mL (≈ 0.0878 µM) | 0.012 µg/mL (≈ 0.0211 µM) | 0.2 µg/mL (≈ 0.351 µM) | 0.05 µg/mL (≈ 0.0878 µM) | 0.05 µg/mL (≈ 0.0878 µM) | 0.025 µg/mL (≈ 0.0439 µM) | 0.05 µg/mL (≈ 0.0878 µM) | 0.025 µg/mL (≈ 0.0439 µM) | 3.13 µg/mL (≈ 5.49 µM) | 0.1 µg/mL (≈ 0.176 µM) | 6.25 µg/mL (≈ 11 µM) | ≤ 0.006 µg/mL | 0.05 µg/mL (≈ 0.0878 µM) | 0.1 µg/mL (≈ 0.176 µM)
4 | CON=C(C(=O)NC1C(=O)N2C(C(=O)[O-])=C(C[n+]3ccn4c(CO)ccc4c3)CSC12)c1csc(N)n1 (stereo not drawn) [Ex. 21, 7-β-[(Z)-2-(2-aminothiazol-4-yl)-2-methoxyiminoacetamido]-3-(6-hydroxymethylpyrrolo[1,2-a]pyrazinium-2-yl)methyl-3-cephem-4-carboxylate] | 0.1 µg/mL (≈ 0.184 µM) | 0.2 µg/mL (≈ 0.368 µM) | 0.78 µg/mL (≈ 1.43 µM) | 50 µg/mL (≈ 92 µM) | 3.13 µg/mL (≈ 5.76 µM) | 0.78 µg/mL (≈ 1.43 µM) | 0.2 µg/mL (≈ 0.368 µM) | ≤ 0.006 µg/mL | 0.1 µg/mL (≈ 0.184 µM) | 0.012 µg/mL (≈ 0.0221 µM) | ≤ 0.006 µg/mL | ≤ 0.006 µg/mL | 0.012 µg/mL (≈ 0.0221 µM) | 0.012 µg/mL (≈ 0.0221 µM) | 0.39 µg/mL (≈ 0.717 µM) | 0.1 µg/mL (≈ 0.184 µM) | 6.25 µg/mL (≈ 11.5 µM) | ≤ 0.006 µg/mL | ≤ 0.006 µg/mL | 0.012 µg/mL (≈ 0.0221 µM)
